Ends that are not written are not given here.

A short description of data set [1]: Stability of PACAP 66 suspension at 20 mg/mL in 2-propanol at 40° C. Type of data set: physicochemical. The conditions noted are these: suspension 20 mg/mL in 2-propanol. The text has this:
(§1) To test whether a metal salt would stabilize PACAP 66 at a high peptide concentration in an organic solvent, a high concentration of a metal salt would be required, assuming a fixed ratio of metal and peptide is needed for stabilization. A metal salt, however, has limited solubility in an organic solvent Therefore, a similar preparation method was adopted for sample preparation of peptide-metal mixtures at high concentrations, as described under Acidification and Lyophilization of PACAP 66, supra. Briefly, a metal salt and the peptide were first dissolved at a fixed molar ratio in an aqueous solution. The solution was then aliquoted in 3-mL glass vials at a fixed volume and lyophilized. Stability samples were prepared by adding a fixed amount of an organic solvent in the vial. The sample vials were then capped, sealed, and incubated at 40° C. Stability samples were first diluted to a reasonable concentration before analysis by RP-HPLC or CE. Similarly, a peptide suspension was prepared by mixing a proper amount of an organic solvent in a sample vial containing the lyophilized mixture and incubated at 40° C. Stability of solid PACAP 66 was evaluated directly by incubating the sample vial containing the lyophilized mixture at 40° C.

A short description of data set [2]: Stability of PACAP 66 in DMSO at 40° C. in the presence of different metal salts (RP-HPLC recovery, CE purity). Conditions: 2 mg/mL; for PACAP 66 degraded: 4 weeks, RP-HPLC. Type of data set: physicochemical. As for the experimental part: Different metal salts, including ZnCl2, MgCl2, and CaCl2 were separately dissolved at 1 mM in DMSO, a non-aqueous organic solvent. PACAP 66 was then dissolved in these solutions at 2 mg/mL. The bulk solution was aliquoted into 2-mL screw-capped (with an o-ring) sterile polypropylene vials. These stability samples were incubated at 40° C. and analyzed at predetermined intervals.
More than 70% of PACAP 66 was degraded in DMSO in 4 weeks at 40° C. by RP-HPLC, but only approximately 10% of PACAP 66 was degraded in the presence of 1 mM ZnCl2 under the same storage conditions. […] The CE results were similar to the findings from the RP-HPLC analysis.

The nature of data set [3]: Stability of acidified, lyophilized PACAP 66 in DMSO at 40° C. The data set is classed as physicochemical. The conditions noted are these: for PACAP 66 degraded: 2 weeks. The procedure:
Several acid solutions were prepared at 0.1%, including HCl, trifluoro acetic acid (TFA), and H3PO4 and cooled to 2-8° C. The cold acid solutions were then mixed with PACAP 66 at a PACAP 66:acid molar ratio of 1:10. After mixing, the cold PACAP 66 solutions were immediately placed inside a precooled freeze-drier and were lyophilized. The lyophilized material was further equilibrated in a desiccator containing P2O5 for at least one day to absorb additional moisture from the lyophilized peptide. The acidified and dried material was then dissolved in DMSO at 2 mg/mL and stability was conducted as described in the upper section.
The recovery of HCl-acidified PACAP 66 at the end of a 2-week period was 97% by RP-HPLC. However, the recovery could be slightly overestimated, as the corresponding purity of PACAP 66 in the sample was only 89% by RP-HPLC.
We understand that peptides can be hydrolyzed readily under acidic conditions in an aqueous solution. […] In the acidification of PACAP 66, the pH of acidified PACAP 66 solution was measured to be 2.2 after addition of TFA. At this pH, PACAP 66 should be rapidly hydrolyzed.

The nature of data set [4]: Solubility of peptide in organic solvents. The conditions noted are these: some organic solvents. Type of data set: physicochemical.
A short description of data set [5]: Stability of PACAP 66 in a lyophilized state at 40° C. The data set is classed as physicochemical.
Description: as §1

Data set [6] can be described thus: Stability of peptide in an aqueous solution. The data set is classed as physicochemical.
The nature of data set [7]: Stability of PACAP 66 solution at 300 mg/mL in DMSO at 40° C. The data set is classed as physicochemical. The conditions noted are these: 23 weeks.
Description: as §1
PACAP 66 in the sample was acidified in the absence and presence of ZnCl2. Approximately 70% of the peptide was degraded in the control sample after storage for 23 weeks, while approximately 20% was degraded in the acidified samples in the presence or absence of ZnCl2.

The nature of data set [8]: Stability of PACAP 66 solution at 20 mg/mL in 1-methyl-2-pyrrolinidone at 40° C. The data set is classed as physicochemical. The conditions noted are these: acidified samples.
Description: as §1
PACAP 66 in the sample was acidified in the absence and presence of ZnCl2.

For data set [9] the following is noted: pH 4; cited from earlier work.

In the case of “HSDAVFTDNYTRLRKQVAAKKYLQSIKNKRY [PACAP 66]”, the “effect of addition of ZnCl2 on storage stability” value in [1] is “significantly improved the storage stability”. Further, the “stabilizing effect compared with the control” value in data set [2] (1 mM CaCl2) and in [2] (1 mM MgCl2) was “did not have any significant stabilizing effect” in each case. The “PACAP 66 degraded” value in data set [2] (1 mM ZnCl2) is recorded as “approximately 10%”; in data set [2] (control without metal salt), “More than 70%”; in data set [3] (acidified (HCl, TFA or H3PO4) and lyophilized PACAP 66, DMSO 2 mg/mL), “less than 10%”; in data set [3] (unprocessed PACAP 66 (control), DMSO 2 mg/mL), “More than 50%”. For the same substance, the “relative stabilization effect by acids” value in [3] (acidified and lyophilized PACAP 66 in DMSO) is recorded as “HCl >TFA >H3PO4”. Moreover, the “solubility in organic solvents” value in data set [4] is listed as “dissolved easily”. Also, the “effect of acidification on stability during storage” value in [5] is “significantly stabilized the peptide”. For the same substance, the “effect of addition of ZnCl2 on stability” value in [5] (acidified) is “seems to stabilize the peptide to a higher degree”; in data set [8], “seems to stabilize PACAP 66 to a higher degree”. Besides, the “effect of different metals on stability” value in data set [6] (aqueous solution, 40° C., zinc, magnesium or calcium) was “does not improve its stability”. Further, the “effect of zinc oxide on stability” value in [6] (aqueous solution, zinc oxide at 10 mM (FIG. 1)) is “did not stabilize”. Further, the “stability in an aqueous environment” value in data set [6] (aqueous, 40° C. (FIG. 1)) is “not stable”. The peptide degraded result is recorded as “approximately 20%” in data set [7] (acidified (HCl), absence of ZnCl2); “approximately 20%” in [7] (acidified (HCl), presence of ZnCl2); “Approximately 70%” in data set [7] (control sample).

On to Secretin: a PACAP-like peptide, for which the “stability in an aqueous solution” value in [9] is “can be degraded easily”.

(Values after patent US20050009739A1, “Formulation strategies in stabilizing peptides in organic solvents and in dried states” (priority 2002, published 2005).)
